Measured values: patent EP0912751B1, “PROCESS FOR PREPARATION OF D-PROLINE D[…] MEANS OF MICRO-ORGANISMS” (LONZA AG, priority 1996, dated 1998)

System: Amidinohydrolase
Test: Enzyme characterisation (kinetics and inhibition) with whole cells
Type: biochemical, Pseudomonas aeruginosa (DSM 10581)
Procedure: Die Enzymcharakterisierung wurde mit ganzen Zellen von Pseudomonas aeruginosa (DSM 10581) durchgeführt. Dabei betrug die optische Dichte der Zellsuspension OD600 = 17. Der Einfluss der Temperatur wurde in 100 mM Phosphatpuffer (pH 7 - 8) bei einer Substratkonzentration von 25 mM L-α-Chlor-δ-guanidinvaleriansäure bestimmt. Dabei zeigte sich, dass bei 37 °C eine um 40% höhere Aktivität als bei 30 °C erhalten wurde. Der Einfluss des pH-Wertes wurde in gleichem Puffer, bei gleicher Substratkonzentration und bei einer Temperatur von 37 °C ermittelt. Gemessen wurde die Aktivität bei pH 7; pH 7,5; pH 8,0, pH 8,5. Dabei wurde festgestellt, dass das pH-Optimum bei pH 8,5 lag. Durch Einsatz von verschiedenen Konzentrationen an L-α-Chlor-δ-guanidinvaleriansäure wurde der KM-Wert und Vmax bei einer Temperatur von 37 °C, in 100 mM Phosphatpuffer (pH 8,5), bestimmt. Der KM-Wert betrug 85,2 mmol / l und Vmax 0,38 mmol / l / min (Fig. 3).
Durch Zugabe von verschiedenen Konzentrationen an L-α-Chlor-δ-aminovaleriansäure (hergestellt aus Ornithin analog zu Beispiel 6) konnte eine Hemmung nachgewiesen werden.

SMILES | Hemmung (inhibitor at a concentration of 50 mM (Fig. 4)) | Hemmung der Amidinohydrolase (listed as a property of the enzyme, no concentration given) | Vmax (substrate of the enzyme, 37 °C, 100 mM Phosphatpuffer (pH 8,5), whole cells, OD600 = 17) | Km (substrate of the enzyme, 37 °C, 100 mM Phosphatpuffer (pH 8,5), whole cells, OD600 = 17, read-out: KM-Wert)
NCCC[C@H](Cl)C(=O)O [L-α-Chlor-δ-aminovaleriansäure] | vollständige Hemmung |  |  | 
N=C(N)NCCC[C@H](Cl)C(=O)O [L-α-Chlor-δ-guanidinvaleriansäure] |  | gehemmt | 0,38 mmol / l / min | 85.2 mM
